Reference: patent US20240166703A1, “ANTI-INFLAMMATORY PEPTIDE AND METHOD OF USE THEREOF” (The Regents of the University of California, priority 2021, published 2024)
“Also recorded” adds a separate entry of the source.

What was measured:
[1] = tested on: canonical NF-κB signaling through IKK2 in HeLa cells; assay: Western blot of canonical NF-κB signaling in TNF-α-treated HeLa cells; assay type: cell-based, human; settings: increasing peptide concentrations
Protocol: (§1) To prepare nuclear and cytoplasmic protein extracts, HeLa, MEF, and RAW 264.7 cells were lysed in buffer containing 4.3 mM Na2HPO4, 1.47 mM KH2PO4 pH 7.4, 137 mM NaCl, 2.7 mM KCl, 1 mM DTT, 0.05% (v/v) NP-40, and 1×protease inhibitor cocktail for 10 minutes on ice and spun at 3,000 rpm at 4° C. for 10 minutes. The supernatant containing the cytoplasmic fraction was quantified by Bio-Rad protein assay to determine the total amount of protein. Pellets were resuspended in nuclear extraction buffer (25 mM Tris-HCl pH 7.5, 420 mM NaCl, 10% glycerol, 0.2 mM EDTA, 1 mM DTT, 0.5 mM PMSF, 1×protease inhibitor cocktail) once and then subjected to three lysis cycles (freeze at −80° C. and thaw at 37° C.). Finally, samples were centrifuged at 13,000 rpm at 4° C. for 20 minutes, and supernatants containing the soluble nuclear fraction were measured by the Bio-Rad protein assay to determine the total amount of protein. Nuclear and cytoplasmic extracts were aliquoted and kept at −80° C.
(§2) HeLa, MEF, RAW 264.7 cells were cultured in Dulbecco's MEM containing 10% fetal bovine […] supplemented with penicillin and streptomycin, at 37° C. in a humidity incubator with 5% CO2. RAW 264.7 cells were seeded and allowed to adhere for 24 hours then treated with NEMO^ActPep or NEMO^ActPep 6G at different concentrations 60 min before the LPS challenge (100 ng/ml). After 2 hours, nuclear and cytoplasmic extracts were collected. HeLa and MEF cells seeded for 24 hours then treated with NEMO^ActPep or NEMO^ActPep 6G at different concentrations 60 min before the TNF-α challenge (10 ng/ml) for 15 minutes and then nuclear and cytoplasmic extracts were collected. MEF cells were treated with NEMO^ActPep or NEMO^ActPep 6G at different concentrations 1 hour before the LTβR challenge (300 ng/ml). After 24 hours whole cell extracts were collected and aliquoted and kept at −80° C. for further experiments.
(§3) Equivalent amounts of protein from cell extracts was separated by SDS-PAGE and transferred to polyvinylidene fluoride (PVDF) membranes (Millipore, Bedford, MA, USA). The membrane was blocked with 5% bovine serum albumin (BSA) for 1 hour at room temperature and then the membrane was incubated with the primary antibodies overnight at 4° C. Antibodies for IKK2, His, HA, Myc, GST, Ubiquitin, IκBα, phospho-IKK2, p65/ReIA, p84, γ-Actin, p100/52, phospho-ERK, phospho-JNK, phospho-p38, ERK, JNK, and p38 were used for detecting multiple specific protein targets. After binding of an appropriate secondary antibody coupled to horseradish peroxidase, the immunoreactive bands were visualized by enhanced chemiluminescence substrate.
The inhibitory effects of TAT-NEMO^ActPep were further verified on canonical NF-κB signaling in HeLa cells by assessing IKK2 activation loop phosphorylation, IκBα degradation, and NF-κB ReIA/p65 subunit subcellular localization. Consistent with the observations of decreased nuclear NF-κB DNA binding activity by EMSA, treatment with TAT-NEMO^ActPep blocked IKK2 phosphorylation, IκBα proteolysis, and nuclear translocation of ReIA (FIG. 5B).

[2] = tested on: constitutive nuclear transcription factor Oct1; assay: EMSA of Oct1 binding to its probe, HeLa nuclear extracts; assay type: cell-based, human; settings: peptide 10-50 μM
[3] = tested on: canonical NF-κB signaling through IKK2 in RAW 264.7 murine macrophage cells; assay: Western blot of canonical NF-κB signaling in LPS-treated RAW 264.7 cells; assay type: cell-based; settings: 100 ng/mL LPS for 2 hours
Protocol: as §1, §2, §3
It was then tested if the observed effect is universal across species and cell types. The effect of TAT-NEMO^ActPep was tested in RAW 264.7 murine macrophage cells treated with 100 ng/mL purified bacterial lipopolysaccharide (LPS) for 2 hours. Again, NF-κB DNA binding and ReIA subunit nuclear localization were both inhibited as were phosphorylation of the IKK2 activation loop and degradation of IκBα. […] The effect of TAT-NEMO^ActPep on NF-κB DNA binding was also analyzed in MEF cells by EMSA.

[4] = tested on: MAP kinases JNK, Erk2 and p38; assay: Western blot of MAP kinase phosphorylation in TNF-α-treated HeLa cells; assay type: cell-based, human
Protocol: as §3
It was also tested if TAT-NEMO^ActPep has any effect on non-canonical NF-κB signaling. This alternative NF-κB signaling pathway is activated in response to stimulation of specific cytokine receptors and leads to activation of IKK1 and consequent processing of the p100 precursor to the mature NF-κB subunit p52 (30,31). […] To further investigate the possible involvement of TAT-NEMO^ActPep in other signaling pathways, the effect of the peptide on MAPK activation was tested by monitoring the phosphorylation status of JNK, Erk2, and p38 upon TNF-α treatment of HeLa cells. […]

- binding of Oct1 to its probe (EMSA) [2]: not affected
Substance: TAT-NEMO^ActPep: HIV-1 TAT fused flexibly to human NEMO amino acids 375-391; cell permeable version of NEMO activation peptide (SEQ ID NO 2) (YGRKKRRQRRRGGLSSPLALPSQRRSPPEE)
- IKK2 activation loop phosphorylation (western blot) [1]: blocked; also recorded: significantly diminished
- IκBα degradation / proteolysis (western blot) [1]: blocked; also recorded: significantly diminished
- NF-κB ReIA/p65 subunit nuclear localization (western blot) [1]: blocked; also recorded: significantly diminished
- ReIA subunit nuclear localization (western blot) [3]: inhibited
- degradation of IκBα (western blot) [3]: inhibited
- phosphorylation of the IKK2 activation loop (western blot) [3]: inhibited
- phosphorylation of JNK, Erk2 and p38 MAP kinases (western blot) [4]: Neither TAT-NEMO^ActPep nor TAT-NEMO^ActPep 6G influenced; also recorded: no effect
